{"source": "patent US20250361217A1", "about": "“FATTY ACID COMPOUNDS” (University of Pittsburgh - Of the Commonwealth System of …, priority 2022, published 2025)", "key": {"liver of HFD mice": {"test_system": "liver of HFD mice", "assay": "Untargeted/targeted metabolomic mass spectrometry of liver (sphingolipids, acylcarnitine)", "format": "in vivo", "method": "Liver powder (50 mg) was resuspended in 500 μL of H2O and extracted using ethyl acetate (1 mL). Phases were separated by centrifugation for 5 min at 1500 g at 4° C. and the organic phase was collected and dried under nitrogen gas. For acetonitrile precipitation, 200 μL of ice-cold ACN was added to liver tissue homogenized in water and vortexed thoroughly. Samples were centrifuged for 5 min at 1500 g at 4° C. and all the phases were removed and dried under nitrogen gas. Dried samples were reconstituted with McOH and transferred to clean mass spectrometry vials for analysis.\nMass spectrometry data was collected using a Q Exactive Orbitrap (ThermoFisher Scientific) to obtain high-resolution accurate mass data in positive and negative ion modes. Two different Chromatography system were used: The organic phase from Bligh and Dyer extraction sample was performed using a 100×2 mm Luna® 5 μm C18(2) column (phenomenex,00D-4252-BO) with a 0-100% gradient of solvent B (90:10 isopropyl alcohol, ACS reagent for HPLC (Honeywell #AH323):ACN, 0.1% formic acid, reagent grade (Sigma #F0507) and solvent A (70:30 Water, Optima™ LC/MS Grade (Fisher #W6500):acetonitrile, 0.1% formic acid) over 20 min, followed by 100% solvent B for 6 min before a return to 0% solvent B for 4 min at a flow rate of 0.650 mL/min. Chromatography for aqueous Bligh and Dyer phase and acetonitrile precipitation extract was performed using the same column with a gradient of 10-100% solvent D (ACN, 0.1% formic acid) and solvent C (water, 0.1% formic acid) over 18 min, followed by 100% solvent D for 6 min before returning to 10% solvent D for 6 min at a flow rate of 0.650 mL/minute. […]\nCeramide and carnitine conjugates were extracted in the presence of ceramide standard (18:1/17:0) (N-heptadecanoyl-D-erythro-sphingosine, Avanti Polar Lipids #860517) using ethyl acetate and quantified using mass spectrometry.\nMass spectrometry data was collected using an API 5000 LC/MS/MS in positive ion mode. […] Quantitation of analyte and internal standard peak areas was determined using the Quantitation Wizard in Sciex's Analyst® Software."}, "liver gene expression": {"test_system": "liver gene expression", "assay": "RT-qPCR of liver genes", "format": "in vivo, mice", "details": "liver RT-qPCR vs HFD+veh", "method": "Total RNA was extracted using 50 mg of frozen liver powder. The powder was homogenized in 1 mL of TRIzol solution (Invitrogen, #15-596-026) and 200 μl of chloroform, shaken vigorously for 15 seconds, and incubate at RT for 2-3 min. Lysates were centrifuged at 12000 g for 15 min at 4° C. The upper aqueous phase was transferred in a new ice-cold tube and diluted with 500 μl of ice-cold isopropyl alcohol and incubate at RT for 10 min. Tubes were centrifuged at 12000 g for 10 min at 4° C. The RNA pellet was washed twice using ice-cold 75% ethanol and centrifugation for 5 min at 7500 g at 4° C. The RNA pellet was dissolved in RNase-free H2O and the concentration was measured using Nanodrop 2000 (Thermo Fisher Scientific). […] The RNA sample (1 μg) was subjected to reverse transcription with the iScript cDNA synthesis kit. The TaqMan gene expression assays-on-demand system (Applied Biosystems, Foster City, CA, USA) was used for gene expression assessment by quantitative PCR (qPCR) using GAPDH as housekeeping gene using the comparative Ct method."}, "[1]": {"assay": "FuFA-CoA detection in liver by mass spectrometry", "format": "in vivo", "details": "livers of FuFA-treated HFD mice", "method": "Liver powder (50 mg) was used and dissolved in plastic Eppendorf with […] of milli-Q purified water and vortexed well. Then, 200 μl of ACN containing 400 nM n-Heptadecanoyl coenzyme A lithium salt as internal standard (C17-CoA standard, NuCheck) was added, vortexed thoroughly, and centrifuged for 4 min at 10000 g at 4° C. For protein precipitation, the supernatant was transferred to a new tube and 20 μl was diluted with 180 μl of ACN/water (4:1 ratio) in clean mass spectrometry vials for analysis of CoA's.\nFuFA-CoA in liver and primary hepatocytes were detected with an API 5000™ mass spectrometer after chromatographic separation using a 150×2 mm Luna® 5 μm C8 100 C8 Å LC column (OOF-4040-BO) with 5% solvent B (ACN, 0.1% ammonium) at a flow rate of 0.35 ml/min using a system solvent started in 5% solvent B (ACN, 0.1% ammonium hydroxide) and 95% of solvent A(water+0.1% ammonium hydroxide) for 30 seconds, followed by an increase from 5-65% gradient of solvent B over 6 min, followed by re equilibrate condition. Quantitation of analyte and internal standard peak areas was determined using the Quantitation Wizard in Sciex's Analyst® Software."}}}
{"smiles": "CCCc1ccc(CCCCCCCCCC(C)(C)C(=O)O)o1", "note": "[11U3-2M, 2,2-Dimethyl-11-(5-propylfuran-2-yl)undecanoic acid]", "values": [{"measurement": "liver metabolites changed by HFD (untargeted metabolomics)", "setting": "liver of HFD mice; 50 mg/kg", "result": "returned the liver to its basal condition"}, {"measurement": "liver sphingomyelins SM(18:1/16:0), SM(18:1/20:0), SM(18:1/24:0) vs HFD+veh", "setting": "liver of HFD mice; effect relative to that on ceramides", "result": "analogous"}, {"measurement": "liver ceramides (e.g. Cer(18:1/16:0), Cer(18:1/20:0), total ceramide) vs HFD+veh", "setting": "liver of HFD mice; targeted quantification", "result": "significant reduction"}, {"measurement": "LncRNA GM10804 decreased", "setting": "liver gene expression", "result": 3.3, "unit": "fold"}, {"measurement": "LncRNA GM15441 increased", "setting": "liver gene expression", "result": 320, "unit": "fold"}, {"measurement": "PDK4 increase", "setting": "liver gene expression", "result": 9.3, "unit": "fold"}, {"measurement": "FuFA-CoA conjugate in liver (ratio to C17:0-CoA)", "setting": "[1]", "result": "significantly elevated"}]}
